Test results reported in patent US20110142884A1, “Materials and Methods for Making Improved Micelle Compositions” (The Board of Trustees of the University of Illinois, priority 2002, published 2011).
≈ marks a conversion by molar mass, not a printed value.

Legend:
[1] = tested on: human breast cancer cells (MCF-7); experiment: In vitro cytotoxic activity, sulforhodamine B; conditions: three days incubation
Method: The cytotoxic activity of paclitaxel in SSMM, SSM and dimethyl sulfoxide (10% DMSO) was determined against human breast cancer cells (MCF-7; ATCC # HTB-22). The cell line was maintained in RPMI 1640 medium containing 10% fetal bovine serum and 1.0% antibiotics (penicillin and streptomycin), in a 5% carbon dioxide humidified atmosphere at 37° C. Optimum solutions of paclitaxel-SSM and paclitaxel-SSMM chosen from the solubilization studies were used as the test solutions. A 10% dimethyl sulfoxide (DMSO) solution of paclitaxel was also tested as a control. […]
Briefly, samples were prepared as described earlier and serial dilutions were made to obtain paclitaxel concentrations ranging from 0.0013 to 4 μg/ml using the respective solvent that is either HEPES buffer or 10% DMSO. […] Each sample was evaluated in triplicate. […] The optical density was then read at 515 nm. The optical density readings obtained for the solvent controls were used to define 100% growth after correcting for the value obtained for the zero day control. These values were then expressed as a % survival and ED50 values calculated using non-linear regression analysis (percent survival versus concentration).
All the data are expressed as means±standard deviation (SD). […] ED50 values were calculated for each formulation and compared statistically using one-way analysis of variance. […]

[2] = physchem; conditions: pH 7.4, aqueous with cosolvent or surfactant or cyclodextrin, thermodynamic from solid, paclitaxel solubilized by SSMM
Method: Solubilization potential of both micelle compositions for a model drug was measured by HPLC after separation of the unincorporated drug.
Excess drug was removed by centrifugation and the supernatant was analyzed by HPLC. […] HPLC eluent was measured with adsorption at 254 nm.
According to this example, micelle compositions of the invention were further characterized. Particularly, the physiochemical properties of sterically stabilized micelles prepared with DSPE conjugated to molecular weight 2000, 3000, and 5000 PEG were analyzed. The critical micelle concentration (CMC) of phospholipids was determined at pH 7.4 and 25° C. using a water-insoluble fluorescent probe (1,6-diphenyl-1,3,5-hexatriene). Micellar size was determined by quasi-elastic light scattering.
The solvent was then removed by vacuum rotary evaporation under a stream of argon to form a dry film. This dry film was further dried under vacuum overnight to remove any traces of remaining solvent. The dried film was rehydrated with isotonic 0.01M HEPES buffer, pH 7.4. The solution was then flushed with argon, sealed and equilibrated for 12 h at room temperature. The unsolubilized excess paclitaxel was removed by centrifugation at 13,000 g for 5 min to obtain a clear dispersion.
The solubilization potentials of SSMM and SSM for paclitaxel were determined by RP-HPLC. The clear aqueous dispersion was diluted with methanol. 20 μl of each sample was injected at least three times into a μBondapak C-18 column, 3.9 mm×30 cm (Waters, Milford, Mass.) equipped with a C18 column guard. The column was eluted with acetonitrile/water (60:40) at 1.0 ml/min (Waters 600). Detection was by UV absorption measurement at 227 nm (Waters 490). Peak areas were calculated by interfacing the detector to an electronic integrator (Hewlett Packard). The drug concentration was calculated from standard curves.

- solubility at 12 h [2]: 1320 ± 48 µg/mL (≈ 1550 µM)
Compound: CC(=O)O[C@H]1C(=O)[C@@]2(C)[C@H]([C@H](OC(=O)c3ccccc3)[C@]3(O)C[C@H](OC(=O)[C@H](O)[C@@H](NC(=O)c4ccccc4)c4ccccc4)C(C)=C1C3(C)C)[C@]1(OC(C)=O)CO[C@@H]1C[C@@H]2O [paclitaxel]
- cytotoxic activity against MCF-7 cells [1]: comparable cytotoxic activities
